# From patent publication US4684664A, “Derivatives of β-(4-isocyano-1,2,3,4-diepoxycyclopentyl) acrylic acid” (Kureha Kagaku Kogyo Kabushiki Kaisha, priority 1984, dated 1987)
# What was measured:
# Assay type in all cases: cell-based
# [1] = tested on: Candida albicans IAM 4905; test: Antifungal activity, agar-dilution MIC, organism No. 29; conditions: Candida albicans, IAM4905; Organism No. 29, bouillon-agar; read-out: Minimum Inhibitory Concentration
# Description: (§1) Agar-dilution method was used for determination of the antibacterial activity and antifungal activity while using bouillon-agar culture medium, and the minimum inhibitory concentration of the specimen was expressed by μg/ml of the culture medium.
# [2] = tested on: Proteus morganii IFO 3848; test: Antibacterial activity, agar-dilution MIC, organism No. 18; conditions: Morganella morganii, IFO3848; Organism No. 18, bouillon-agar; read-out: Minimum Inhibitory Concentration
# Description: as §1
# [3] = tested on: Salmonella enteritidis G 14; test: Antibacterial activity, agar-dilution MIC, organism No. 12; conditions: Salmonella enterica, ENTERITIDIS; Organism No. 12, bouillon-agar; read-out: Minimum Inhibitory Concentration
# Description: as §1
# [4] = tested on: Mycoplasma pneumoniae IID817; test: Antimycoplasmal activity, MIC by phenol red colour change, organism No. 28; conditions: Mycoplasma, IID817; Organism No. 28, PPLO broth + 1% glucose, 37° C.; read-out: Minimum Inhibitory Concentration (MIC)
# Procedure: Mycoplasma pneumoniae IID817 was used as the test microorganism in a culture medium prepared by adding 1% of glucose to "PPLO broth (manufactured by Difco Co.) liquid culture medium" at 37° C. with phenol red as an indicator, thereby culturing the test microorganism.
# [5] = tested on: Pseudomonas aeruginosa IFO 3445; test: Antibacterial activity, agar-dilution MIC, organism No. 15; conditions: Pseudomonas aeruginosa, IFO3445; Organism No. 15, bouillon-agar; read-out: Minimum Inhibitory Concentration
# Description: as §1
# [6] = tested on: Salmonella typhimurium IID 971; test: Antibacterial activity, agar-dilution MIC, organism No. 8; conditions: Salmonella enterica; Organism No. 8, bouillon-agar; read-out: Minimum Inhibitory Concentration
# Description: as §1
# [7] = tested on: Streptococcus pyogenes IFO 3340; test: Antibacterial activity, agar-dilution MIC, organism No. 26; conditions: Streptococcus pyogenes, IFO3340; Organism No. 26, bouillon-agar; read-out: Minimum Inhibitory Concentration
# Description: as §1
# [8] = tested on: Proteus mirabilis IFO 3849; test: Antibacterial activity, agar-dilution MIC, organism No. 19; conditions: Proteus mirabilis, IFO3849; Organism No. 19, bouillon-agar; read-out: Minimum Inhibitory Concentration
# Description: as §1
# [9] = tested on: Escherichia coli NIHJ-JC-2; test: Antibacterial activity, agar-dilution MIC, organism No. 5; conditions: Escherichia coli, NIHJJC2; Organism No. 5, bouillon-agar; read-out: Minimum Inhibitory Concentration
# Description: as §1
# [10] = tested on: Streptococcus pyogenes Cook; test: Antibacterial activity, agar-dilution MIC, organism No. 4; conditions: Streptococcus pyogenes; Organism No. 4, bouillon-agar; read-out: Minimum Inhibitory Concentration
# Description: as §1
# [11] = tested on: Staphylococcus aureus FDA 209PJc-1; test: Antibacterial activity, agar-dilution MIC, organism No. 1; conditions: Staphylococcus aureus, FDA209PJC1; Organism No. 1, bouillon-agar; read-out: Minimum Inhibitory Concentration
# Description: as §1
# [12] = tested on: Salmonella shottmuelleri 8006; test: Antibacterial activity, agar-dilution MIC, organism No. 11; conditions: Salmonella, 8006; Organism No. 11, bouillon-agar; read-out: Minimum Inhibitory Concentration
# Description: as §1
# [13] = tested on: Pseudomonas aeruginosa NCTC 10490; test: Antibacterial activity, agar-dilution MIC, organism No. 16; conditions: Pseudomonas aeruginosa, NCTC10490; Organism No. 16, bouillon-agar; read-out: Minimum Inhibitory Concentration
# Description: as §1
# Salmonella typhi 901 = test: Antibacterial activity, agar-dilution MIC, organism No. 9; conditions: Salmonella enterica, TYPHI, read-out: Minimum Inhibitory Concentration
# Description: as §1
# [14] = tested on: Proteus rettgeri IFO 3850; test: Antibacterial activity, agar-dilution MIC, organism No. 22; conditions: Providencia rettgeri, IFO3850; Organism No. 22, bouillon-agar; read-out: Minimum Inhibitory Concentration
# Description: as §1
# [15] = tested on: Bacillus subtilis ATCC 6633; test: Antibacterial activity, agar-dilution MIC, organism No. 14; conditions: Bacillus subtilis, ATCC6633; Organism No. 14, bouillon-agar; read-out: Minimum Inhibitory Concentration
# Description: as §1
# [16] = tested on: Pseudomonas aeruginosa PAO 1; test: Antibacterial activity, agar-dilution MIC, organism No. 17; conditions: Pseudomonas aeruginosa, PAO1; Organism No. 17, bouillon-agar; read-out: Minimum Inhibitory Concentration
# Description: as §1
# [17] = tested on: Enterobacter aerogenes ATCC 13048; test: Antibacterial activity, agar-dilution MIC, organism No. 23; conditions: Klebsiella aerogenes, ATCC13048; Organism No. 23, bouillon-agar; read-out: Minimum Inhibitory Concentration
# Description: as §1
# Enterobacter cloacae 963 = test: Antibacterial activity, agar-dilution MIC, organism No. 24; conditions: Enterobacter cloacae, 963; Organism No. 24, bouillon-agar; read-out: Minimum Inhibitory Concentration
# Description: as §1
# Proteus vulgaris OX-19 = test: Antibacterial activity, agar-dilution MIC, organism No. 20; conditions: Proteus vulgaris, OX19; Organism No. 20, bouillon-agar; read-out: Minimum Inhibitory Concentration
# Description: as §1
# [18] = tested on: Salmonella paratyphi-A 1015; test: Antibacterial activity, agar-dilution MIC, organism No. 10; conditions: Salmonella enterica, PARATYPHI, read-out: Minimum Inhibitory Concentration
# Description: as §1
# [19] = tested on: Staphylococcus aureus MS 353; test: Antibacterial activity, agar-dilution MIC, organism No. 3; conditions: Staphylococcus aureus, MS353; Organism No. 3, bouillon-agar; read-out: Minimum Inhibitory Concentration
# Description: as §1
# [20] = tested on: Staphylococcus aureus Terajima; test: Antibacterial activity, agar-dilution MIC, organism No. 2; conditions: Staphylococcus aureus; Organism No. 2, bouillon-agar; read-out: Minimum Inhibitory Concentration
# Description: as §1
# [21] = tested on: Escherichia coli K12 C600 IAM 1264; test: Antibacterial activity, agar-dilution MIC, organism No. 6; conditions: Escherichia coli, IAM1264; Organism No. 6, bouillon-agar; read-out: Minimum Inhibitory Concentration
# Description: as §1
# [22] = tested on: Aspergillus niger IFO 6342; test: Antifungal activity, agar-dilution MIC, organism No. 30; conditions: Aspergillus niger, IFO6342; Organism No. 30, bouillon-agar; read-out: Minimum Inhibitory Concentration
# Description: as §1
# [23] = tested on: Klebsiella pneumoniae PCI-602; test: Antibacterial activity, agar-dilution MIC, organism No. 7; conditions: Klebsiella pneumoniae, PCI602; Organism No. 7, bouillon-agar; read-out: Minimum Inhibitory Concentration
# Description: as §1
# [24] = tested on: Streptococcus faecium IFO 3826; test: Antibacterial activity, agar-dilution MIC, organism No. 27; conditions: Enterococcus faecium, IFO3826; Organism No. 27, bouillon-agar; read-out: Minimum Inhibitory Concentration
# Description: as §1
# [25] = tested on: Micrococcus luteus ATCC 9341; test: Antibacterial activity, agar-dilution MIC, organism No. 25; conditions: Micrococcus luteus, ATCC9341; Organism No. 25, bouillon-agar; read-out: Minimum Inhibitory Concentration
# Description: as §1
# Proteus vulgaris HX-19 = test: Antibacterial activity, agar-dilution MIC, organism No. 21; conditions: Proteus vulgaris, HX19; Organism No. 21, bouillon-agar; read-out: Minimum Inhibitory Concentration
# Description: as §1
structure (smiles),measurement,setting,value
[C-]#[N+]C12CC3(/C=C/C(=O)NCc4ccccc4)OC3C1O2 (stereo not drawn) [Compound No. 24],MIC,[1],0.2 µg/mL
same,MIC,[2],1.56 µg/mL
same,MIC,[3],1.56 µg/mL
same,MIC,[4],< 0.2 µg/mL
same,MIC,[5],> 100 µg/mL
same,MIC,[6],6.25 µg/mL
same,MIC,[7],6.25 µg/mL
same,MIC,[8],12.5 µg/mL
same,MIC,[9],12.5 µg/mL
same,MIC,[10],6.25 µg/mL
same,MIC,[11],0.78 µg/mL
same,MIC,[12],0.78 µg/mL
same,MIC,[13],> 100 µg/mL
same,MIC,Salmonella typhi 901,3.13 µg/mL
same,MIC,[14],3.13 µg/mL
same,MIC,[15],12.5 µg/mL
same,MIC,[16],> 100 µg/mL
same,MIC,[17],> 100 µg/mL
same,MIC,Enterobacter cloacae 963,> 100 µg/mL
same,MIC,Proteus vulgaris OX-19,0.78 µg/mL
same,MIC,[18],1.56 µg/mL
same,MIC,[19],0.78 µg/mL
same,MIC,[20],1.56 µg/mL
same,MIC,[21],6.25 µg/mL
same,MIC,[22],1.56 µg/mL
same,MIC,[23],1.56 µg/mL
same,MIC,[24],1.56 µg/mL
same,MIC,[25],< 0.05 µg/mL
same,MIC,Proteus vulgaris HX-19,< 0.05 µg/mL
[C-]#[N+]C12CC3(/C=C/C(=O)N(C(=O)NC4CCCCC4)C4CCCCC4)OC3C1O2 (stereo not drawn) [Compound No. 25],MIC,[1],3.13 µg/mL
same,MIC,[2],> 100 µg/mL
same,MIC,[3],100 µg/mL
same,MIC,[4],1.56 µg/mL
same,MIC,[5],> 100 µg/mL
same,MIC,[6],100 µg/mL
same,MIC,[7],6.25 µg/mL
same,MIC,[8],> 200 µg/mL
same,MIC,[9],12.5 µg/mL
same,MIC,[10],1.56 µg/mL
same,MIC,[11],0.1 µg/mL
same,MIC,[12],0.1 µg/mL
same,MIC,[13],> 100 µg/mL
same,MIC,Salmonella typhi 901,100 µg/mL
same,MIC,[14],> 200 µg/mL
same,MIC,[15],0.39 µg/mL
same,MIC,[16],> 100 µg/mL
same,MIC,[17],> 100 µg/mL
same,MIC,Enterobacter cloacae 963,50 µg/mL
same,MIC,Proteus vulgaris OX-19,25 µg/mL
same,MIC,[18],0.1 µg/mL
same,MIC,[19],0.78 µg/mL
same,MIC,[20],0.78 µg/mL
same,MIC,[21],6.25 µg/mL
same,MIC,[22],6.25 µg/mL
same,MIC,[23],100 µg/mL
same,MIC,[24],6.25 µg/mL
same,MIC,[25],< 0.05 µg/mL
same,MIC,Proteus vulgaris HX-19,0.1 µg/mL
[C-]#[N+]C12CC3(/C=C/C(=O)N[C@@H](CCC(=O)OC)C(=O)OC)OC3C1O2 (stereo partly drawn) [Compound No. 26],MIC,[1],100 µg/mL
same,MIC,[2],100 µg/mL
same,MIC,[3],50 µg/mL
same,MIC,[4],1.56 µg/mL
same,MIC,[5],> 200 µg/mL
same,MIC,[6],100 µg/mL
same,MIC,[7],50 µg/mL
same,MIC,[8],> 200 µg/mL
same,MIC,[9],100 µg/mL
same,MIC,[10],50 µg/mL
same,MIC,[11],25 µg/mL
same,MIC,[12],50 µg/mL
same,MIC,[13],> 200 µg/mL
same,MIC,Salmonella typhi 901,50 µg/mL
same,MIC,[14],> 200 µg/mL
same,MIC,[15],100 µg/mL
same,MIC,[16],> 200 µg/mL
same,MIC,[17],> 200 µg/mL
same,MIC,Enterobacter cloacae 963,> 200 µg/mL
same,MIC,Proteus vulgaris OX-19,25 µg/mL
same,MIC,[18],50 µg/mL
same,MIC,[19],25 µg/mL
same,MIC,[20],100 µg/mL
same,MIC,[21],100 µg/mL
same,MIC,[22],100 µg/mL
same,MIC,[23],50 µg/mL
same,MIC,[24],> 200 µg/mL
same,MIC,[25],12.5 µg/mL
same,MIC,Proteus vulgaris HX-19,12.5 µg/mL
